Values after ≈ are worked out from the molar mass of the structure shown. Like-named read-outs stand apart in the source and are kept apart here. No end group written: not given here.
Legend:
[1] = test system: E. coli ribosome, U2506 of the 23S rRNA; assay: Ribosome footprinting (CMCT modification of U2506); type: binding; details: 1 μM peptide, 10.5 μM CMCT, purified E. coli ribosomes (5 pmol), 25 °C; primer extension, sequencing gel
Description: A 5 mL culture of E. coli MG1655 (WT-cells) was grown in LB overnight (220 rpm, 37 °C). One liter LB medium was inoculated, and bacteria were grown to OD = 0.6 (220 rpm. 37 °C); cells were centrifuged in centrifuge bottles, and the pellet was resuspended in ice-cold water and transferred in 50 mL falcon tubes. Falcon tubes were centrifuged, the supernatant was removed, the pellet was resuspended in 15 mL polysome buffer (TRIS/HCl pH 7.5 20 mM, NH4Cl 100 mM, MgCl2 10 mM, EDTA 0.5 mM, β-mercaptoethanol 60 mM), frozen dropwise in N2 (l), and stored at −80 °C. The cells were ground in CryoMil with the standard program (1 min precooling, 2 min grinding 5/s, 2 min cooling, 2 min grinding 5/s). The powder was transferred in 50 mL falcon tubes containing N2 (l) and stored at −80 °C. The lysates were thawed with a water bath (30 °C), put on ice, transferred to precooled Eppendorf tubes, and centrifuged (5000 g, 2 min, 4 °C). The clear lysate was transferred to new precooled tubes, centrifuged (14 000 g, 10 min, 4 °C), and the supernatant was transferred to new precooled tubes. 300 mL of clear lysate was loaded on a 10–50% sucrose gradient in CMCT buffer (K-borate buffer pH 8 80 mM, MgCl2 25 mM, NH4Cl 100 mM) and ultracentrifuged (3 h, 234 050 g, 4 °C). The fractions containing monosomes and polysomes were collected and ultracentrifuged overnight (16 h, 260 800 g, 4 °C). The supernatant was discarded, and the pellet was washed with ice-cold CMCT buffer. The ribosomes were resuspended in 100 μL CMCT buffer with a mini magnetic stirring bar and stored on ice. The concentration of ribosomes was measured in 1/200 dilution in water.
Ribosomes (5 pmol) were mixed with 8 μL of CMCT buffer, the compound of interest 1 μM, and water to a final volume of 20 μL in a precooled tube and incubated at 25 °C for 10 min. 20 μL of CMCT (10.5 μM) in water was added and incubated at 25 °C for 30 min. The reaction was stopped with 160 μL of EDTA (30 μM), and the samples were stored on ice.
160 μL portion of RNA resuspension buffer and 40 μL of 10% SDS were added, and the samples were vigorously resuspended. 400 μL of prewarmed acid phenol was added, and the samples were incubated on a thermomixer (5 min, 1200 rpm, 65 °C). The samples were put on ice for 5 min and centrifuged (5 min, 14 000 g, RT). The watery phase was transferred to a new precooled tube, 400 μL of phenol–chloroform–isoamyl alcohol (4 °C) was added, and the samples were mixed (5 min, 1200 rpm, RT). The samples were centrifuged again (5 min, 14 000g, RT), and the watery phase was transferred to another precooled tube. 34 μL of 3 M NaOAc pH 5.5, 0.8 μL of Glycoblue and 400 μL of isopropanol were added, and the samples were incubated for 3 h at −80 °C. The samples were then centrifuged (40 min, 21 000g, 4 °C), and the pellet was washed with ice-cold 70% EtOH. The residual liquid was removed, and the samples were dried (5 min, 37 °C). The samples were resuspended in 20 μL of water, the concentration was measured, and the samples were −80 °C.
Primers designed to probe the positions 2506 of the 23S rRNA (5-[sequence]-3′) were labeled with radioactive phosphate (γ^32 P-ATP). […] To prepare primers for one reaction, 1 μL of primer (0.3 μM), 0.4 μL of 5× PNK-buffer, 0.25 μL of water, 0.2 μL of γ^32 P-ATP, and 0.15 μL of T4 PNK were mixed and incubated at 37 °C.

[2] = test system: P. aeruginosa PA14 4.18 (pmrB); details: for MIC P. aeruginosa PA14 4.18: supplement CSV
K. pneumoniae NCTC418 = assay: Time-killing kinetic assay, K. pneumoniae; type: cell-based, Klebsiella pneumoniae; details: 8× MIC, full MHB pH 7.4, 0-6 h, n = 6
Description: (§1) Time-Killing Kinetic Assay
(§2) Single colonies of E. coli W3110 and K. pneumoniae NCTC418 were picked and grown overnight with shaking (180 rpm) in LB (Sigma-Aldrich, Buchs, Switzerland) medium 5 mL overnight at 37 °C. The overnight bacterial cultures were diluted to OD600 = 0.002 (2 × 10^6 CFU/mL) in fresh MHB medium. Stock solutions of AMPs in sterilized milliQ water were prepared in 1 mg/mL and were diluted to two times more than required concentration in fresh MHB (Sigma- Aldrich, Buchs, Switzerland) medium at pH 7.4. 100 μL of prepared bacteria solution in MHB and 100 μL of samples in MHB were mixed in a 96-well microtiter plate (TPP, untreated, Corning Incorporated, Kennebunk, USA). Untreated bacteria at 1 × 10^6 CFU/mL were used as a growth control. 96-well microtiter plates were incubated in 37 °C with shaking (180 rpm). Surviving bacteria were quantified at 0, 0.5, 1, 2, 4 and 6 h by plating 10 -fold dilutions of the sample in sterilized normal saline on LB agar plates. LB agar plates were incubated at 37 °C for 10 h, and the number of individual colonies was counted at each time point. The assay was performed in triplicate in a biosafety level 2 lab. […]

human red blood cells = assay: Hemolysis assay, minimum hemolytic concentration
P. aeruginosa ZEM-1A = assay: microbe, parasite or virus in culture; details: for MIC: Pseudomonas aeruginosa, ZEM1A
Summary of the method: (§3)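 Minimal inhibitory concentrations come from broth microdilution in MH medium, with a top peptide concentration of 64 μg/mL halved serially.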

E. cloacae = assay: microbe, parasite or virus in culture; details: for MIC E. cloacae: supplement CSV; for MIC: Enterobacter cloacae
Summary of the method: as §3

[3] = test system: P. aeruginosa PA14 2P4 (pmrB); assay: microbe, parasite or virus in culture; details: for MIC P. aeruginosa PA14 2P4: supplement CSV; for MIC: Pseudomonas aeruginosa
Summary of the method: as §3

P. aeruginosa PA14 = assay: microbe, parasite or virus in culture; details: for MIC P. aeruginosa PA14: supplement CSV; for MIC: Pseudomonas aeruginosa
Summary of the method: as §3

P. aeruginosa ZEM9A = assay: microbe, parasite or virus in culture; details: for MIC P. aeruginosa ZEM9A: supplement CSV; for MIC: Pseudomonas aeruginosa, ZEM9A
Summary of the method: as §3

E. coli W3110 = assay: Time-killing kinetic assay, E. coli; type: cell-based, Escherichia coli; details: 8× MIC, full MHB pH 7.4, 0-6 h, n = 6
Description: as §1, §2

[4] = polymyxin B resistant strain, 12.5% MHB pH 7.4, 16–20 h at 37 °C
[5] = polymyxin B resistant strain, full MHB pH 7.4, 16–20 h at 37 °C

VDKPPYLPRPRPPRRIYNR [sr8Cterm-Onc] (VDKPPYLPRPRPPRRIYNR-NH2; also: residues 12-19 stereorandomized (1:1 L/D mixture)) [oncocin with 8 C-terminal residues stereorandomized]
Protection of U2506 of 23S rRNA from CMCT modification (band at C2507) [1]: protected from CMCT modification
MIC P. aeruginosa PA14 4.18 (pmrB), 12.5% MHB [2, 4]: 8 µg/mL
MIC P. aeruginosa PA14 4.18 (pmrB), full MHB [2, 5]: 64 µg/mL
MIC P. aeruginosa PA14 4.18 ([2]; 12.5% MH pH 7.4): 8 µg/mL
MIC P. aeruginosa PA14 4.18 ([2]; full MH pH 7.4): 64 µg/mL
Killing profile against K. pneumoniae (K. pneumoniae NCTC418): comparable kinetics to L-Onc
Haemolysis on hRBC, MHC (human red blood cells; 2.5% human red blood cells (final) in 10 mM phosphate, 150 mM NaCl, pH 7.4, 25 °C, 4 h, visual inspection): >1000 µg/mL
MHC human red blood cells (human red blood cells; supplement CSV): >1000 µg/mL
MIC P. aeruginosa ZEM-1A, 12.5% MHB (P. aeruginosa ZEM-1A; clinical isolate, 12.5% MHB pH 7.4, 16–20 h at 37 °C, cells marked c: single measurement (in duplicates)): 4 to 8 µg/mL
MIC P. aeruginosa ZEM-1A, full MHB (P. aeruginosa ZEM-1A; clinical isolate, full MHB pH 7.4, 16–20 h at 37 °C, cells marked c: single measurement (in duplicates)): 64 µg/mL
MIC P. aeruginosa ZEM-1A (P. aeruginosa ZEM-1A; supplement CSV, 12.5% MH pH 7.4): 4 to 8 µg/mL
MIC E. cloacae, 12.5% MHB (E. cloacae; 12.5% MHB pH 7.4, 16–20 h at 37 °C): 0.5 µg/mL
MIC E. cloacae, full MHB (E. cloacae; full MHB pH 7.4, 16–20 h at 37 °C): > 64 µg/mL
MIC E. cloacae (E. cloacae; 12.5% MH pH 7.4): 0.5 µg/mL
MIC E. cloacae (E. cloacae; full MH pH 7.4): >64 µg/mL
MIC P. aeruginosa PA14 2P4 (pmrB), 12.5% MHB [3, 4]: 2 µg/mL
MIC P. aeruginosa PA14 2P4 (pmrB), full MHB [3, 5]: > 64 µg/mL
MIC P. aeruginosa PA14 2P4 ([3]; 12.5% MH pH 7.4): 2 µg/mL
MIC P. aeruginosa PA14 2P4 ([3]; full MH pH 7.4): >64 µg/mL
MIC P. aeruginosa PA14, 12.5% MHB (P. aeruginosa PA14; 12.5% MHB pH 7.4, 16–20 h at 37 °C, two different duplicate MIC determinations): 8 µg/mL
MIC P. aeruginosa PA14, full MHB (P. aeruginosa PA14; full MHB pH 7.4, 16–20 h at 37 °C, two different duplicate MIC determinations): > 64 µg/mL
MIC P. aeruginosa PA14 (P. aeruginosa PA14; 12.5% MH pH 7.4): 8 µg/mL
MIC P. aeruginosa PA14 (P. aeruginosa PA14; full MH pH 7.4): >64 µg/mL
MIC P. aeruginosa ZEM9A, 12.5% MHB (P. aeruginosa ZEM9A; clinical isolate, 12.5% MHB pH 7.4, 16–20 h at 37 °C): 8 µg/mL
MIC P. aeruginosa ZEM9A, full MHB (P. aeruginosa ZEM9A; clinical isolate, full MHB pH 7.4, 16–20 h at 37 °C): > 64 µg/mL
MIC P. aeruginosa ZEM9A (P. aeruginosa ZEM9A; 12.5% MH pH 7.4): 8 µg/mL
MIC P. aeruginosa ZEM9A (P. aeruginosa ZEM9A; full MH pH 7.4): >64 µg/mL
Killing profile against E. coli (E. coli W3110): comparable kinetics to L-Onc

CC[C@H]1OC(=O)[C@H](C)[C@@H](O[C@H]2C[C@@](C)(OC)[C@@H](O)[C@H](C)O2)[C@H](C)[C@@H](O[C@@H]2O[C@H](C)C[C@H](N(C)C)[C@H]2O)[C@](C)(O)C[C@@H](C)CN(C)[C@H](C)[C@@H](O)[C@]1(C)O [AZM, azithromycin, reference compound]
MIC P. aeruginosa PA14 4.18 ([2]; full MH pH 7.4): 32 µg/mL (≈ 42.7 µM)
Killing profile against K. pneumoniae (K. pneumoniae NCTC418): acted bacteriostatically
MIC (P. aeruginosa ZEM-1A; pH 7.4, read-out: MIC P. aeruginosa ZEM-1A, 12.5% MHB, clinical isolate, 12.5% MHB pH 7.4, 16–20 h at 37 °C, cells marked c: single measurement (in duplicates)): < 0.5 µg/mL
MIC (P. aeruginosa ZEM-1A; pH 7.4, read-out: MIC P. aeruginosa ZEM-1A, full MHB, clinical isolate, full MHB pH 7.4, 16–20 h at 37 °C, cells marked c: single measurement (in duplicates)): 64 µg/mL (≈ 85.4 µM)
MIC (P. aeruginosa ZEM-1A; pH 7.4, read-out: MIC P. aeruginosa ZEM-1A, supplement CSV, 12.5% MH pH 7.4): < 0.5 µg/mL
MIC (P. aeruginosa ZEM-1A; pH 7.4, read-out: MIC P. aeruginosa ZEM-1A, supplement CSV, full MH pH 7.4): 64 µg/mL (≈ 85.4 µM)
MIC (E. cloacae; pH 7.4, read-out: MIC E. cloacae, 12.5% MHB, 12.5% MHB pH 7.4, 16–20 h at 37 °C): 8 µg/mL (≈ 10.7 µM)
MIC (E. cloacae; pH 7.4, read-out: MIC E. cloacae, full MHB, full MHB pH 7.4, 16–20 h at 37 °C): 16 µg/mL (≈ 21.4 µM)
MIC (E. cloacae; pH 7.4, read-out: MIC E. cloacae, supplement CSV, 12.5% MH pH 7.4): 8 µg/mL (≈ 10.7 µM)
MIC (E. cloacae; pH 7.4, read-out: MIC E. cloacae, supplement CSV, full MH pH 7.4): 16 µg/mL (≈ 21.4 µM)
MIC ([3]; PA14, pH 7.4, read-out: MIC P. aeruginosa PA14 2P4 (pmrB), 12.5% MHB, polymyxin B resistant strain, 12.5% MHB pH 7.4, 16–20 h at 37 °C): 16 µg/mL (≈ 21.4 µM)
MIC ([3]; PA14, pH 7.4, read-out: MIC P. aeruginosa PA14 2P4 (pmrB), full MHB, polymyxin B resistant strain, full MHB pH 7.4, 16–20 h at 37 °C): 32 to 64 µg/mL (≈ 42.7 to 85.4 µM)
MIC ([3]; PA14, pH 7.4, read-out: MIC P. aeruginosa PA14 2P4, supplement CSV, 12.5% MH pH 7.4): 16 µg/mL (≈ 21.4 µM)
MIC ([3]; PA14, pH 7.4, read-out: MIC P. aeruginosa PA14 2P4, supplement CSV, full MH pH 7.4): 32 to 64 µg/mL (≈ 42.7 to 85.4 µM)
MIC (P. aeruginosa PA14; PA14, pH 7.4, read-out: MIC P. aeruginosa PA14): 32 µg/mL (≈ 42.7 µM)
MIC (P. aeruginosa PA14; PA14, pH 7.4, read-out: MIC P. aeruginosa PA14, 12.5% MHB): 32 µg/mL (≈ 42.7 µM)
MIC (P. aeruginosa PA14; PA14, pH 7.4, read-out: MIC P. aeruginosa PA14, full MHB): 32 µg/mL (≈ 42.7 µM)
MIC P. aeruginosa PA14 (P. aeruginosa PA14; full MH pH 7.4): 32 µg/mL (≈ 42.7 µM)
MIC (P. aeruginosa ZEM9A; pH 7.4, read-out: MIC P. aeruginosa ZEM9A, 12.5% MHB, clinical isolate, 12.5% MHB pH 7.4, 16–20 h at 37 °C): 32 to 64 µg/mL (≈ 42.7 to 85.4 µM)
MIC (P. aeruginosa ZEM9A; pH 7.4, read-out: MIC P. aeruginosa ZEM9A, full MHB, clinical isolate, full MHB pH 7.4, 16–20 h at 37 °C): > 64 µg/mL
MIC (P. aeruginosa ZEM9A; pH 7.4, read-out: MIC P. aeruginosa ZEM9A, supplement CSV, 12.5% MH pH 7.4): 32 to 64 µg/mL (≈ 42.7 to 85.4 µM)
MIC (P. aeruginosa ZEM9A; pH 7.4, read-out: MIC P. aeruginosa ZEM9A, supplement CSV, full MH pH 7.4): > 64 µg/mL
Killing profile against E. coli (E. coli W3110): acted bacteriostatically

— article PMC11571207, “Stereorandomized Oncocins with Preserved Ribosome Binding and Antibacterial Activity” (Journal of Medicinal Chemistry, 2024)
